Where two headings read alike, the source gives them in different places.
Experiment: Plasma concentration versus time of Compound I and metabolite Compound III in patients dosed QD or BID with Form B of Compound II plus fulvestrant
Format: in vivo, human
Conditions: human, plasma, oral; for concentration at 0 h / concentration at 1 h / concentration at 2 h / concentration at 3 h / concentration at 4 h / concentration at 6 h / concentration at 8 h / concentration at 10 h / concentration at 12 h / concentration at 24 h: read-out: Compound I Concentration; for concentration at 8 day / concentration at 15 day / concentration at 22 day: Cohort 4, 500 mg QD of Form B; for concentration at 8 day: Day 8; for concentration at 15 day: Day 15; for concentration at 22 day: Day 22
Source text: Patients were enrolled into 1 of 2 parallel, independently operating, dose-escalation dosing cohorts with Form B of Compound II administered continuously either once daily (QD) or twice daily (BID) with food with fixed-dose fulvestrant (intramuscularly every 14 days for the first three injections and then every 28 days). Pre- or perimenopausal patients also received goserelin for the duration of study treatment. A […] agonist was started at least 28 days before the first dose of Form B, and those patients who were taking another LHRH agonist were switched to goserelin on Day 1. Patients were split into […] cohorts providing once a day (QD) dosing of 200 mg, 300 mg, 400 mg, 500 mg, or 650 mg of Form B, or twice a day (BID) dosing of 100 mg, 150 mg, or 200 mg of Form B. The second dose in BID cohorts was not administered in the evening until at least 12 hours after the initial morning dose of Form B. The dosing cohorts for Form B of Compound II are provided in Table 1.
Blood samples were collected at the following time points relative to the morning dose of Form B at Day 1 and at Day 29: pre-dose (0 hour) and 1, 2, 3, 4, 6, 8, 10, 12 (prior to the evening dose in the BID cohorts), and 24 (prior to the next day's morning dose) hours after dosing. A 5-minute time window was allowed for samples collected between the predose and 3 hours after Form B dosing. A 15-minute window was allowed for samples collected between 4 to 12 hours after Form B dosing. A 1-hour window was allowed for the sample collected 24 hours after Form B dosing. Blood samples for Compound I PK trough levels were collected pre-dose at Day 8, Day 15, and Day 22 prior to the morning administration of Compound I. Plasma concentrations of Compound I and its metabolite, Compound III, were measured using validated methods.
Analysis of plasma concentration versus time data for calculation of standard pharmacokinetic (PK) parameters following oral administration was conducted using Phoenix WinNonlin version 6.3 using actual blood sampling times.

[1] = 500 mg, read-out: Trough Compound I Concentration, Max
[2] = 500 mg, read-out: Trough Compound I Concentration, Median

## CC(C)N1CCN(c2ccc(Nc3ncc4cc5n(c4n3)C3(CCCCC3)CNC5=O)nc2)CC1 [Compound I, 2′-((5-(4-isopropylpiperazin-1-yl)pyridin-2-yl)amino)-7′,8′-dihydro-6′H-spiro[cyclohexane-1,9′-pyrazino[1′,2′:1,5]pyrrolo[2,3-d]pyrimidin]-6′-one]
500 mg, 500 mg QD of Form B, Day 1, 0.0 h, Median
  concentration at 0 h: 0 ng/mL
500 mg, 500 mg QD of Form B, Day 1, 1.0 h, Mean
  concentration at 1 h: 10.4 ng/mL
500 mg, 500 mg QD of Form B, Day 1, 1.0 h, Median
  concentration at 1 h: 10.2 ng/mL
500 mg, 500 mg QD of Form B, Day 1, 2.0 h, Mean
  concentration at 2 h: 18.5 ng/mL
500 mg, 500 mg QD of Form B, Day 1, 2.0 h, Median
  concentration at 2 h: 18.1 ng/mL
500 mg, 500 mg QD of Form B, Day 1, 3.0 h, Mean
  concentration at 3 h: 34.3 ng/mL
500 mg, 500 mg QD of Form B, Day 1, 3.0 h, Median
  concentration at 3 h: 27.4 ng/mL
500 mg, 500 mg QD of Form B, Day 1, 4.0 h, Mean
  concentration at 4 h: 35.4 ng/mL
500 mg, 500 mg QD of Form B, Day 1, 4.0 h, Median
  concentration at 4 h: 35.3 ng/mL
500 mg, 500 mg QD of Form B, Day 1, 6.0 h, Mean
  concentration at 6 h: 46.5 ng/mL
500 mg, 500 mg QD of Form B, Day 1, 6.0 h, Median
  concentration at 6 h: 45.6 ng/mL
500 mg, 500 mg QD of Form B, Day 1, 8.0 h, Mean
  concentration at 8 h: 40.6 ng/mL
500 mg, 500 mg QD of Form B, Day 1, 8.0 h, Median
  concentration at 8 h: 42.3 ng/mL
500 mg, 500 mg QD of Form B, Day 1, 10.0 h, Mean
  concentration at 10 h: 32.2 ng/mL
500 mg, 500 mg QD of Form B, Day 1, 10.0 h, Median
  concentration at 10 h: 33.4 ng/mL
500 mg, 500 mg QD of Form B, Day 1, 12.0 h, Mean
  concentration at 12 h: 27.8 ng/mL
500 mg, 500 mg QD of Form B, Day 1, 12.0 h, Median
  concentration at 12 h: 28.3 ng/mL
500 mg, 500 mg QD of Form B, Day 1, […], Mean
  concentration at 24 h: 8.93 ng/mL
500 mg, 500 mg QD of Form B, Day 1, […], Median
  concentration at 24 h: 7.17 ng/mL
500 mg, 500 mg QD of Form B, Day 29, 0.0 h, Mean
  concentration at 0 h: 14.4 ng/mL
500 mg, 500 mg QD of Form B, Day 29, 0.0 h, Median
  concentration at 0 h: 15.3 ng/mL
500 mg, 500 mg QD of Form B, Day 29, 1.0 h, Mean
  concentration at 1 h: 21.2 ng/mL
500 mg, 500 mg QD of Form B, Day 29, 1.0 h, Median
  concentration at 1 h: 17.6 ng/mL
500 mg, 500 mg QD of Form B, Day 29, 2.0 h, Mean
  concentration at 2 h: 34.2 ng/mL
500 mg, 500 mg QD of Form B, Day 29, 2.0 h, Median
  concentration at 2 h: 33.8 ng/mL
500 mg, 500 mg QD of Form B, Day 29, 3.0 h, Mean
  concentration at 3 h: 40.3 ng/mL
500 mg, 500 mg QD of Form B, Day 29, 3.0 h, Median
  concentration at 3 h: 41.4 ng/mL
500 mg, 500 mg QD of Form B, Day 29, 4.0 h, Mean
  concentration at 4 h: 41.8 ng/mL
500 mg, 500 mg QD of Form B, Day 29, 4.0 h, Median
  concentration at 4 h: 44.9 ng/mL
500 mg, 500 mg QD of Form B, Day 29, 6.0 h, Mean
  concentration at 6 h: 41.5 ng/mL
500 mg, 500 mg QD of Form B, Day 29, 6.0 h, Median
  concentration at 6 h: 43.2 ng/mL
500 mg, 500 mg QD of Form B, Day 29, 8.0 h, Mean
  concentration at 8 h: 34.1 ng/mL
500 mg, 500 mg QD of Form B, Day 29, 8.0 h, Median
  concentration at 8 h: 33.5 ng/mL
500 mg, 500 mg QD of Form B, Day 29, 10.0 h, Mean
  concentration at 10 h: 26.7 ng/mL
500 mg, 500 mg QD of Form B, Day 29, 10.0 h, Median
  concentration at 10 h: 25.6 ng/mL
500 mg, 500 mg QD of Form B, Day 29, 12.0 h, Mean
  concentration at 12 h: 24.4 ng/mL
500 mg, 500 mg QD of Form B, Day 29, 12.0 h, Median
  concentration at 12 h: 25.2 ng/mL
500 mg, 500 mg QD of Form B, Day 29, […], Mean
  concentration at 24 h: 12.5 ng/mL
500 mg, 500 mg QD of Form B, Day 29, […], Median
  concentration at 24 h: 13 ng/mL
[1]
  concentration at 8 day: 23.5 ng/mL
  concentration at 15 day: 32.8 ng/mL
  concentration at 22 day: 27.3 ng/mL
[2]
  concentration at 8 day: 17.2 ng/mL
  concentration at 15 day: 23.9 ng/mL
  concentration at 22 day: 17.7 ng/mL
650 mg, 650 mg QD of Form B, Day 1, 0.0 h, Mean
  concentration at 0 h: 0 ng/mL
650 mg, 650 mg QD of Form B, Day 1, 0.0 h, Median
  concentration at 0 h: 0 ng/mL
650 mg, 650 mg QD of Form B, Day 1, 1.0 h, Mean
  concentration at 1 h: 12.7 ng/mL
650 mg, 650 mg QD of Form B, Day 1, 1.0 h, Median
  concentration at 1 h: 9.68 ng/mL
650 mg, 650 mg QD of Form B, Day 1, 2.0 h, Mean
  concentration at 2 h: 24.8 ng/mL
650 mg, 650 mg QD of Form B, Day 1, 2.0 h, Median
  concentration at 2 h: 19.1 ng/mL
650 mg, 650 mg QD of Form B, Day 1, 3.0 h, Mean
  concentration at 3 h: 30.9 ng/mL
650 mg, 650 mg QD of Form B, Day 1, 3.0 h, Median
  concentration at 3 h: 31.6 ng/mL
650 mg, 650 mg QD of Form B, Day 1, 4.0 h, Mean
  concentration at 4 h: 43.7 ng/mL
650 mg, 650 mg QD of Form B, Day 1, 4.0 h, Median
  concentration at 4 h: 43.5 ng/mL
650 mg, 650 mg QD of Form B, Day 1, 6.0 h, Mean
  concentration at 6 h: 52.7 ng/mL
650 mg, 650 mg QD of Form B, Day 1, 6.0 h, Median
  concentration at 6 h: 49.8 ng/mL
650 mg, 650 mg QD of Form B, Day 1, 8.0 h, Mean
  concentration at 8 h: 59.6 ng/mL
